Reference: the NIST ThermoML archive (doi:10.1021/je301301j)

Assay: molar heat capacity at constant pressure; xn = mol fraction of the nth substance listed
Settings: Liquid, Flow calorimetry

C=CCCCC [hex-1-ene] + CCCCO
molar heat capacity at constant pressure [J/K/mol]
Settings	x2 = 0	x2 = 0.1001	x2 = 0.2	x2 = 0.3002	x2 = 0.3999	x2 = 0.5018	x2 = 0.5997	x2 = 0.7002	x2 = 0.7999	x2 = 0.9
293.15 K, 100 kPa	179.2	190.4	191.6	192.1	188.5	187.6	184.9	182.6	178.7	176.2
293.15 K, 5000 kPa	174.9	187.5	188.7	189	186.7	185.6	183.1	180	177.5	175.7
293.15 K, 10000 kPa	172.7	184.7	186.3	186.4	184	183.6	180.6	178.7	175.1	174
293.15 K, 15000 kPa	169.9	182.6	183.1	185.1	182.5	182.1	178.5	177.1	173.8	172.1
293.15 K, 20000 kPa	168.1	178.4	179.9	182.8	180.1	179.8	176.1	175.8	172.4	170.7
293.15 K, 25000 kPa	165.7	176.7	178	180.1	178.8	178	174.8	173.5	170.7	169.3
313.15 K, 100 kPa	188.8	204.1	208	209.8	210.3	205.3	203	200.2	198.3	193.4
313.15 K, 5000 kPa	185.9	199.9	204.8	206.6	206.5	202.6	200.6	197.6	195.5	192.5
313.15 K, 10000 kPa	183.1	196.1	201.3	203.2	203.8	199.9	197.8	195.2	193.1	190.4
313.15 K, 15000 kPa	181.6	193.2	198.7	200.9	201.5	197.5	195.7	194	191.9	188
313.15 K, 20000 kPa	179.6	191	196.2	198.2	199.5	194.1	193	192	190.4	186.5
313.15 K, 25000 kPa	177.2	188.1	193.4	194.5	197	192.9	191.4	189.4	188.2	185
